According to US20120301551A1, “COMPOUNDS AND COMPOSITIONS FOR TREATING NEURONAL DEATH OR NEUROLOGICAL DYSFUNCTION” (Neurotech Pharmaceuticals Co., Ltd., priority 2005, published 2012):
Like-named read-outs stand apart in the source and are kept apart here. Residues, ends and D or L forms follow the SMILES beside them. *: point of attachment. Cbz = O=C(OCc1ccccc1)*; CH2F = FC*

How the values were obtained:
[1] = test system: mixed cortical cell cultures containing neurons and glia; test: Fe2+-induced free radical neurotoxicity in mixed cortical cell cultures (LDH release); format: cell-based, mouse; details: for IC50: 50 μM FeCl2, neuronal death 24 hr later (LDH), read-out: IC50 (50% protection against Fe^2+-induced free radical neurotoxicity)
Procedure: Mouse cortical cell cultures (DIV 11-15) were exposed to 50 μM Fe^2+ or 10 mM BSO, alone or with inclusion of 5 mM Li^+. Neuronal death was analyzed 24 hr later by measuring levels of LDH released into the bathing medium, mean±SEM (n=9-12 culture wells per condition).
Mouse cortical cell cultures (DIV 11-15) were exposed to 30 μM Fe^2+ or 10 mM BSO, alone or in the presence of 1 μM 2-hydroxy TTBA, 10-100 μM vitamin E, or 5 mM Li^+.
For mixed neuron-glia culture, mouse cerebral cortices were removed from brains of the 11-15 day-old-fetal mice (E11-15), gently triturated and plated on 24 well plates (2×10^5 cells/plate) precoated with 100 μg/ml poly-D-lysine and 4 pg/ml laminin. Cultures were maintained at 37° C. in a humidified 5% CO2 atmosphere.
After 7-8 days in vitro (DIV 7-8), 10 μM cytosine arabinofuranoside (Ara-C) was included to halt overgrowth of glia. The drug treatment was carried on DIV 11-15 cortical cell culture.
Oxidative stress was induced by exposing mixed cortical cell cultures containing neurons and glia (DIV 11-15) to 50 μM FeCl2, a hydroxyl radical-producing transition metal via a Fenton reaction, or 10 mM DL-buthionine-[S,R]-sulfoximine (BSO), a glutathione depleting agent.

[2] = single-dose toxicity test; details: mouse, in vivo
Procedure: Single-dose toxicity test of compounds showing good results in the above three efficacy tests were evaluated.

beta-amyloid (Aβ42) = test: suppression of beta-amyloid (Aβ42) production in CHO cells (ELISA); format: cell-based, Chinese hamster; details: Cricetulus griseus; CHO cells stably transfected with human wild APP695 and PS1ΔExon9; culture medium, ELISA; read-out: Aβ42 lowering effect (IC50)
Procedure: The suppressing effects of many drug candidates on production of beta-amyloid were evaluated in CHO cell line having the increased level of beta-amyloid. Results were shown as IC50 (uM) (Item C of Table 3 below).
In the Table 3, A, B and C mean neuron protecting effect against Fe^+2, suppressing effect on production of NO and suppressing effect on production of beta-amyloid, respectively. The term “ND” means “Not determined.”
Cells were treated with increasing concentrations of various chemicals in Chinese hamster ovary (CHO) cells stably transfected with human wild APP695 and the PS1ΔExon9, and analyzed Aβ42 levels in culture medium by colorimetric sandwich ELISA kit (BIOSOURCE, Camarillo, Calif.). In CHO cells, IC50 of Chemical—01-08 on Aβ42 lowering effect was 20-100 uM (Table 4).

[3] = test system: neuron-rich cortical cell cultures; test: serum deprivation-induced neuronal cell apoptosis; format: cell-based, mouse; details: 24 hr; 5 mM Li^+, 100 μM zVADfmk, 1 μM 2-hydroxy TTBA
Procedure: (B) Neuron-rich cortical cell cultures (DIV 7) were deprived of serum, alone or with addition of 100 μM zVADfmk, 1 μM 2-hydroxy TTBA, or 5 mM Li^+. Neuronal death was analyzed 24 hr later by counting viable neurons excluding trypan (mean±SEM, n=4). *, Significant difference from the relevant control (serum deprivation alone), p<0.05 using ANOVA and Student-Neuman-Keuls test. (C) Western blot analysis of FADD antibody following immunoprecipitation with Fas antibody in the same samples above.
Additional experiments were performed to examine if targeting both neuronal cell necrosis and apoptosis would result in synergic neuroprotection in […] transgenic mice. […] Neuronal cell apoptosis was induced by serum deprivation in neuron-rich cortical cell cultures as reported, which was prevented by addition of 5 mM Li^+ as well as zVADfmk, a broad spectrum inhibitor of caspases (FIG. 5B). […] Additional experiments were performed to examine if Li^+ would prevent Fas signaling pathway. […] This implies that 2-Hydroxy-TTBA and Li^+ blocks oxidative neuronal cell necrosis and apoptosis, respectively.

[4] = test system: cortical cell cultures containing neurons and glia; test: cyclosporine A or calyculin A-induced neuronal cell apoptosis in cortical cell cultures; format: cell-based, mouse; details: 20 μM cyclosporine A, 24 hr, 100 μM Vitamin E, 1 μM 2-hydroxy-TTBA, 1 μM 2-hydroxy-TPEA
Procedure: Mouse cortical cell cultures (DIV 10-12) were exposed to 20 μM cyclosporine A or 10 nM calculin A, alone or with inclusion of 0.3-30 mM Li. Neuronal death was analyzed 24-28 hr later by measuring levels of LDH released into the bathing medium, mean±SEM (n=9-12 culture wells per condition).
Mouse cortical cell cultures (DIV 10-12) were exposed to 20 μM cyclosporine A, alone or with 100 μM Vitamin E, 1 μM 2-hydroxy-TTBA, or 1 μM 2-hydroxy-TPEA. Neuronal death was analyzed 24 hr later by measuring levels of LDH released into the bathing medium, mean±SEM (n=9-12 culture wells per condition).
Cortical cell cultures containing neurons and glia at 10-12 days in vitro (DIV 10-12) were exposed to 20 μM cyclosporine A (CsA) or 10 nM caliculin A (cal A). Neurons underwent widespread apoptosis 24 hr later as previously reported (McDonald et al., 1996; Ko et al., 2000). […] This implies that Li^+ and the neuroprotective drugs (vitamin E, trolox, BAS, CBAS, FBAS, TBAS, PBAS, MBAS, NPAA, NPPAA, 2-Hydroxy-TTBA, and 2-Hydroxy-TPEA) selectively prevent neuronal cell apoptosis and free radical-mediated necrosis, respectively.

Molecule | IC50 [1] | IC50 ([1]; Mus musculus, Neuron) | other results
O=C(O)c1cc(NCc2ccc(Cl)cc2)ccc1O [CBAS] | 200 nM |  | 
O=C(O)c1cc(NCc2ccc(F)cc2)ccc1O [FBAS] | 300 nM |  | 
COc1ccc(CNc2ccc(O)c(C(=O)O)c2)cc1 [MBAS, 5-(4-methoxybenzyl)aminosalicylic acid] |  | 1420 nM | 
O=C(O)c1cc(NCc2ccc([N+](=O)[O-])cc2)ccc1O [NBAS, 5-(4-nitrobenzyl)aminosalicylic acid] |  | 1900 nM | 
O=C(O)c1cc(NCCc2ccc([N+](=O)[O-])cc2)ccc1O [NPAA, 5-[2-(4-nitrophenyl)-ethyl]aminosalicylic acid] |  | 270 nM | 
O=C(O)c1cc(NCCCc2ccc([N+](=O)[O-])cc2)ccc1O [NPPAA, 5-[3-(4-nitrophenyl)-n-propyl]aminosalicylic acid] |  | 200 nM | 
O=C(O)c1cc(NCc2c(F)c(F)c(F)c(F)c2F)ccc1O [PBAS, 5-(pentafluoro-benzyl)aminosalicylic acid] | 100 nM |  | 
O=C(O)c1cc(NCc2ccc(C(F)(F)F)cc2)ccc1O [TBAS] | 310 nM |  | 
Cc1c(C)c2c(c(C)c1O)CCC(C)(C(=O)O)O2 (stereo not shown) [Trolox, reference compound] |  | 3340 nM | 
O=C(O)c1cc(NCCc2cccc(C(F)(F)F)c2)ccc1O [chemical 04, 2-Hydroxy-5-[2-(3-trifluoromethyl-phenyl)-ethylamino]-benzoic acid] |  |  | single-dose toxicity, result in words [2]: high toxicity or dose-independent toxicity
O=C(O)c1cc(NCCc2cc(C(F)(F)F)cc(C(F)(F)F)c2)ccc1O [chemical 27, 5-[2-(3,5-Bis-trifluoromethyl-phenyl)-ethylamino]-2-hydroxy-benzoic acid] |  |  | IC50 (beta-amyloid (Aβ42)): 109000 nM; single-dose toxicity, result in words [2]: did not show dose-dependent result
O=C(O)c1cc(NCCCc2ccc(C(F)(F)F)cc2)ccc1O [chemical 42, 2-Hydroxy-5-[3-(4-trifluoromethyl-phenyl)-propylamino]-benzoic acid] |  |  | IC50 (beta-amyloid (Aβ42)): 68300 nM; single-dose toxicity, result in words [2]: high toxicity or dose-independent toxicity
COC(=O)C[C@H](NC(=O)[C@H](C)NC(=O)[C@@H](NC(=O)OCc1ccccc1)C(C)C)C(=O)CF [zVADfmk] (Cbz-Val-Ala-Asp(OMe)-CH2F) |  |  | serum deprivation-induced neuronal cell apoptosis, effect in words [3]: prevented
Vitamin E [reference compound] | 22000 nM |  | Fe^2+-induced free radical neurotoxicity, effect in words ([1]; 50 μM Fe^2+, 24 hr, 2-Hydroxy-TTBA or 2-Hydroxy-TPEA at doses as low as 0.3 μM, vitamin E at higher doses, Li^+ 10 mM (legend 5 mM)): prevented; cyclosporine A-induced neuronal cell apoptosis, effect in words [4]: do not attenuate; cyclosporine A-induced neuronal cell apoptosis, effect in words ([4]; listed as vitamin E): not attenuated
